# Source: the NIST ThermoML archive (doi:10.1016/j.jct.2012.09.032)
# Numbers after ± are expanded uncertainties.
# Conditions: Liquid, Ebulliometric method (Recirculating still)
compound,measurement,setting,value
O [water],vapor or sublimation pressure,311.15 K,6.7 ± 0.11 kPa
same,vapor or sublimation pressure,324.55 K,13.3 ± 0.35 kPa
same,vapor or sublimation pressure,361.85 K,66.7 ± 2.8 kPa
CO [methanol],vapor or sublimation pressure,282.55 K,6.7 ± 0.1 kPa
same,vapor or sublimation pressure,293.75 K,13.3 ± 0.27 kPa
same,vapor or sublimation pressure,301.45 K,20 ± 0.41 kPa
same,vapor or sublimation pressure,307.35 K,26.7 ± 0.56 kPa
same,vapor or sublimation pressure,311.85 K,33.3 ± 0.7 kPa
same,vapor or sublimation pressure,315.75 K,40 ± 0.86 kPa
same,vapor or sublimation pressure,319.05 K,46.7 ± 1 kPa
same,vapor or sublimation pressure,322.05 K,53.3 ± 1.2 kPa
same,vapor or sublimation pressure,324.65 K,60 ± 1.4 kPa
same,vapor or sublimation pressure,327.25 K,66.7 ± 1.6 kPa
OCC(O)CO [glycerol],vapor or sublimation pressure,477.25 K,6.7 ± 0.12 kPa
same,vapor or sublimation pressure,493.35 K,13.3 ± 0.37 kPa
same,vapor or sublimation pressure,505.55 K,20 ± 0.58 kPa
same,vapor or sublimation pressure,513.95 K,26.7 ± 0.76 kPa
same,vapor or sublimation pressure,520.65 K,33.3 ± 0.87 kPa
CCO [ethanol],vapor or sublimation pressure,295.25 K,6.7 ± 0.1 kPa
same,vapor or sublimation pressure,307.45 K,13.3 ± 0.27 kPa
same,vapor or sublimation pressure,315.05 K,20 ± 0.41 kPa
same,vapor or sublimation pressure,321.05 K,26.7 ± 0.57 kPa
same,vapor or sublimation pressure,325.65 K,33.3 ± 0.7 kPa
same,vapor or sublimation pressure,329.55 K,40 ± 0.86 kPa
same,vapor or sublimation pressure,332.85 K,46.7 ± 1 kPa
same,vapor or sublimation pressure,335.95 K,53.3 ± 1.2 kPa
same,vapor or sublimation pressure,338.65 K,60 ± 1.4 kPa
same,vapor or sublimation pressure,341.15 K,66.7 ± 1.6 kPa
